This assay deals with PKMYT1 (Homo sapiens (Human), UniProt Q99640). Description: PKMYT1 HTRF Assay. The class given is binding. Conditions: Tracer 178, GST-Tb; compound 10 μM to 0.5 nM; read-out: MYT1 HTRF IC50. As to the method:
Example A: PKMYT1 HTRF Assay
Compound serial dilution is performed by Echo, and the final concentrations vary from 10 μM to 0.5 nM. This was filled by the addition of 5 μL/well of Enzyme solution to the assay plate containing the compound. The plate was centrifuged at 1000 rpm for 1 minute, and incubate 15 minutes at 25 ? . Then 5 μL/well of tracer solution (Tracer 178) was added to initiate the reaction, and incubate for 60 minutes at 25° C. Next 5 μL GST-Tb was added into the assay plate, the plate was centrifuged at 1000 rpm for 1 minute, and incubate for 15 minutes at 25 ? . The assay plate was read on Envision.
Background: Time-resolved FRET reads energy transfer from a long-lived donor to a nearby acceptor.

Chain of PKMYT1 (Q99640 whole entry): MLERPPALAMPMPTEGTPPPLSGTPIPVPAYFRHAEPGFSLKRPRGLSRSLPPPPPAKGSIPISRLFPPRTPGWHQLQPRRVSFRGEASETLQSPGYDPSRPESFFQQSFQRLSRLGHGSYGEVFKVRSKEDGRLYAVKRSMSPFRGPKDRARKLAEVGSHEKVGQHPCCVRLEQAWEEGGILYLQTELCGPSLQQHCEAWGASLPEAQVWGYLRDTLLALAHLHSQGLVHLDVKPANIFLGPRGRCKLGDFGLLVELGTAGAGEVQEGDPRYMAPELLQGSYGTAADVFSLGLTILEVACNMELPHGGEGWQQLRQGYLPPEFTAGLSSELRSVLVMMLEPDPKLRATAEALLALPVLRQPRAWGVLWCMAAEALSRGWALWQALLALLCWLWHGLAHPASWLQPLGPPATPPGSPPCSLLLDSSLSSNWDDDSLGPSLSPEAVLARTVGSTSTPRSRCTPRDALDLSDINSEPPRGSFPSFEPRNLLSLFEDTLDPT

With `Cc1ncc(-c2cc3c(C#N)c(-c4c(C)ccc(O)c4C)cnc3[nH]2)cn1` (atropisomer, axis not shown) [Example 32, (S)-5-(3-hydroxy-2,6-dimethylphenyl)-2-(2-methylpyrimidin-5-yl)-1H-pyrrolo[2,3-b]pyridine-4-carbonitrile], the IC50 (in general, the concentration that inhibits the measured activity by half) was under 10 nM. The value for `Cc1ncc(-c2[nH]c3ncc(-c4c(C)ccc(O)c4C)c(C#N)c3c2Cl)cn1` (atropisomer, axis not shown) [Example 33, (S)-3-chloro-5-(3-hydroxy-2,6-dimethylphenyl)-2-(2-methylpyrimidin-5-yl)-1H-pyrrolo[2,3-b]pyridine-4-carbonitrile] was under 10 nM; that for `Cc1ncc(-c2cc3c(C#N)c(-c4c(C)ccc(O)c4C)cnc3[nH]2)c(C)n1` (atropisomer, axis not shown) [Example 77, (R)-2-(2,4-dimethylpyrimidin-5-yl)-5-(3-hydroxy-2,6-dimethylphenyl)-1H-pyrrolo[2,3-b]pyridine-4-carbonitrile] was 10 to 50 nM; that for `Cc1ccc(O)c(C)c1-c1cnc2[nH]c(-c3ccc(N4CCN(C)CC4)nc3C)nc2c1` [Example 1, 2,4-dimethyl-3-(2-(2-methyl-6-(4-methylpiperazin-1-yl)pyridin-3-yl)-3H-imidazo[4,5-b]pyridin-6-yl)phenol] was 50 to 500 nM.

On to `Cc1ccc(O)c(C)c1-c1cnc2[nH]c(-c3ccc(N4CCN(C)CC4)nc3C)nc2c1C` [Example 2, 2,4-dimethyl-3-(7-methyl-2-(2-methyl-6-(4-methylpiperazin-1-yl)pyridin-3-yl)-3H-imidazo[4,5-b]pyridin-6-yl)phenol], for which the IC50 is 500 to 5000 nM. In the case of `Cc1ccc(O)c(C)c1-c1cnc2[nH]c(-c3ccc(N4CCN(C)CC4)nc3)c(C)c2c1` [Example 3, 2,4-dimethyl-3-(3-methyl-2-(6-(4-methylpiperazin-1-yl)pyridin-3-yl)-1H-pyrrolo[2,3-b]pyridin-5-yl)phenol], the IC50 lay within 50 to 500 nM.

For the compound `Cc1ccc(O)c(C)c1-c1cnc2[nH]c(-c3ccc(N4CCN(C)CC4)nc3)cc2c1` [Example 4, 2,4-dimethyl-3-(2-(6-(4-methylpiperazin-1-yl)pyridin-3-yl)-1H-pyrrolo[2,3-b]pyridin-5-yl)phenol], the IC50 was 50 to 500 nM.

For the compound `Cc1ccc(-c2cc3cc(-c4c(C)ccc(O)c4C)cnc3[nH]2)cn1` [Example 5, 2,4-dimethyl-3-(2-(6-methylpyridin-3-yl)-1H-pyrrolo[2,3-b]pyridin-5-yl)phenol], the IC50 fell in the range of 10 to 50 nM. Take `CC(=O)N1CC=C(c2cc3cc(-c4c(C)ccc(O)c4C)cnc3[nH]2)CC1` [Example 6, 1-(4-(5-(3-hydroxy-2,6-dimethylphenyl)-1H-pyrrolo[2,3-b]pyridin-2-yl)-3,6-dihydropyridin-1 (2H)-yl)ethan-1-one]: the IC50 lay within 50 to 500 nM.

Consider `Cc1ncc(-c2cc3cc(-c4c(C)ccc(O)c4C)cnc3[nH]2)cn1` [Example 7, 2,4-dimethyl-3-(2-(2-methylpyrimidin-5-yl)-1H-pyrrolo[2,3-b]pyridin-5-yl)phenol], for which the IC50 lay within 10 to 50 nM. Next, `COc1cncc(-c2cc3cc(-c4c(C)ccc(O)c4C)cnc3[nH]2)c1` [Example 8, 3-(2-(5-methoxypyridin-3-yl)-1H-pyrrolo[2,3-b]pyridin-5-yl)-2,4-dimethylphenol]: 10 to 50 nM; `Cc1ccc(O)c(C)c1-c1cnc2[nH]c(-c3ccn(C)c(=O)c3)cc2c1` [Example 9, 4-(5-(3-hydroxy-2,6-dimethylphenyl)-1H-pyrrolo[2,3-b]pyridin-2-yl)-1-methylpyridin-2 (1H)-one]: 10 to 50 nM; `Cc1ccc(-c2cc3c(Cl)c(-c4c(C)ccc(O)c4C)cnc3[nH]2)cn1` [Example 10, 3-(4-chloro-2-(6-methylpyridin-3-yl)-1H-pyrrolo[2,3-b]pyridin-5-yl)-2,4-dimethylphenol]: under 10 nM.

With `Cc1ccc(-c2cc3nc(-c4c(C)ccc(O)c4C)cnc3[nH]2)cn1` [Example 11, 2,4-dimethyl-3-(6-(6-methylpyridin-3-yl)-5H-pyrrolo[2,3-b]pyrazin-2-yl)phenol], the IC50 was under 10 nM.
